Read-outs that look alike come from different tables or passages of the source.
Legend:
[1] = test system: green rice leafhopper (Nephotettix cincticeps), R-strain; assay: Insecticidal activity against green rice leafhopper, sprayed rice plants, Test example 1; format: in vivo; details: green rice leafhopper female adults, spray on rice plant, 26° C., 24 hours
Procedure: The emulsifiable concentrates of the present compounds and reference compounds prepared in Preparation example 1 were each formulated into test solutions having four different concentrations of active ingredient between 500 ppm and 0.5 ppm. Each test solution was sprayed on a rice plant in a 180-ml plastic cup which had elapsed one month after sowing, at a rate of 15 ml/2 cups by means of a turn table. After air-drying, the rice plate was covered with a wire-screen cage, and 15 female adults of green rice leafhopper (Nephotettix cincticeps) (a strain resistant to carbamates and organo-phosphates, hereinafter referred to as R-strain) were liberated therein. The plant was placed in an artificial climate chamber kept at 26° C. After 24 hours, the dead and alive were examined. The median lethal concentratin [LC50 (ppm)] was calculated from the mortality determined by 3 replications. […]

[2] = Toxicity to killifish (TLm48), Test example 1; format: in vivo, Oryzias latipes; details: for selectivity ratio: in vivo, TLm48 divided by concentration in water at green rice leafhopper LC50, read-out: Safety coefficient to fishes (a)/(b); for LC50 at 48 h: water, killifish, medium tolerance limit, read-out: Toxicity to fishes TLm48 (a)
Procedure: Toxicity to killifish (Oryzias latipes) was tested accordig to the test method for toxicity to fishes described in Notification B No. 2735 of the Ministry of Agriculture and Forestry (Nov. 25, 1965). Namely, each of the present compounds (1), (2), (4), (5), (6), (8), (9), (11) and reference compounds was dissolved or suspended in "Tween 80" and diluted successively with dechlorinated tap water. Ten killifish (0.2-0.3 g per fish) were released in a 10-liter glass vessel containing 5 liters of each preparation.
In order to make it clearer that the present compounds have a low toxicity to fishes as well as a high insecticidal activity, a safety coefficient to fishes was calculated from the test results of toxicity to fishes and insecticidal activity. [formula]
A detailed explanation will be given to a method of how to calculate the safety coefficient. In the case of green rice leafhoppers, calculation was based on the concentration of active ingredient in water obtained by applying a test solution containing the active ingredient in an amount corresponding to LC50 (ppm) to a flooded paddy field 5 cm deep at a rate of 100 liter/10 are, provided that all the active ingredient applied entered the water.
For example, the safety coefficient to fishes of the present compound (1) is calculated as follows: The quantity of water in a flooded paddy field 5 cm deep and 10 are in area is 50 tons; when a test solution containing the active ingredient in an amount corresponding to LC50 (ppm) is added to the paddy field at a rate of 100 liter/10 are the concentration of the active ingredient in water (hereinafter referred to as (b)) is 0.008 pp; as the toxicity to fishes [TLm48 (ppm)] (hereinafter referred to as (a)) is >2.0 ppm, said coefficient can be calculated by dividing (a) by (b). In this case, the coefficient is >250, which means that the present compound (1) has a safety higher than 250-fold.

[3] = test system: killifishes (Oryzias latipes); assay: Simulated paddy field box test, killifish survival, Test example 6; format: in vivo; details: wettable powder, 100 ppm, 100 liter/10 are, water depth 5 cm, after 48 hours
Procedure: (§1) The wettable powder of each of the present compounds (1), (3), (5), (6) and (11) prepared in Preparation example 4 was diluted with water so that the concentration of active ingredient was 100 ppm. Soil was placed in a plastic box [5 m×5 m×2 m (deep)] to a level of 50 cm from the bottom, and rice plants about 50 cm high were transplanted at invervals of 50 cm. Water was then placed in the box so that water depth was 5 cm, and 20 killifishes (Oryzias latipes) were liberated therein. Thereafter, the above dilute solution was sprayed on the box at a rate of 100 liter/10 are. The solution fell on the rice plants as well as on the water surface.
(§2) One hour after treatment, 100 female adults of green rice leafhopper (Nephotettix cincticeps) were liberated in the box which was immediately covered with a net.

[4] = test system: green rice leafhopper (Nephotettix cincticeps); assay: Simulated paddy field box test, green rice leafhopper, Test example 6; format: in vivo; details: wettable powder, 100 ppm, 100 liter/10 are, after 48 hours
Procedure: as §1, §2

[5] = test system: housefly (Musca domestica); assay: Housefly mortality, treated filter paper with bait, Test example 7; format: in vivo; details: 0.7 ml on filter paper, housefly female adults, 48 hours
Procedure: The emulsifiable concentrate obtained in preparation Example 1 was diluted 200 times with water (corresponding to 500 ppm of the active ingredient). On the bottom a polyethylene cup of 5.5 cm in diameter was placed a piece of filter paper of the same size, and 0.7 ml of the above dilute liquor was dropped on the filter paper. Sucrose (30 mg) was placed on the paper as bait. Thereafter, 10 housefly female adults (Musca domestica) were liberated in the cup which was then covered with a lid. After 48 hours, the dead and alive were counted to obtain mortality (4 replications).

[6] = test system: CSMA strain housefly (Musca domestica); assay: Topical application to housefly adults, Test example 8; format: in vivo; details: topical to ventral thorax, 0.5 μl/adult, female adults, 24 hours
Procedure: The present compounds as below and reference compounds were each diluted with acetone into test solutions having four different concentrations of active ingredient. Each test solution was topically applied to the ventral throrax of CSMA strain housefly female adults (Musca domestica), at a rate of 0.5 μl/adult by means of a microapplicator.
The adults were then liberated in a polyethylene cup and fed with milk, sugar and water. After 24 hours, the dead and alive were observed. The median lethal dosage (LD50 μg/adult) was obtained from the morality (3 replications).

[7] = test system: green rice leafhopper (Nephotettix cincticeps); assay: Residual effect test, Text example 5; format: in vivo; details: 20 cc per pot, 24 hours
Procedure: The emulsifiable concentrate of each of the present compounds (5) and (11) prepared in Preparation example 1 was diluted with water so that the conentration of active ingredient was 400 ppm. Thereafter, 20 cc of the dilute solution was sprayed on rice plants grown in a 1/10,000 are Wagner's pot. The rice plants were air-dried and covered with a wire-screen cage, and 15 female adults of green rice leafhopper (Nephotettix cincticeps) were liberated therein. After 24 hours, the dead and alive were examined to obtain mortality. In order to examine the residual effect, the pot was then left as it was for 7 days, and the test insects were liberated in the same manner as above. After 24 hours, the mortality was examined. The experiment was carried out in a greenhouse and the number of replications was three.

[8] = test system: carmine mites (Tetranychus cinnabarinus); assay: Damage to rice plants by carmine mites, Test example 4; format: in vivo; details: 500 ppm spray, after 10 days
Procedure: The emulsifiable concentrate of each of the present compounds (3), (5), (9) and (11) prepared in Preparation example 1 was diluted with water so that the concentration of the active ingredient was 500 ppm. The dilute liquor was thoroughly sprayed on rice plants (grown in a 1/10,000 are Waner's pot) on which carmine mites (Tetranychus cinnabarinus) in all stages were made parasitic.

[9] = test system: yellow fever mosquito (Aedes aegypti); format: in vivo; details: 50 mg of granules (Preparation example 6) in 100 ml water, full grown larvae, after 24 hours
Procedure: Fifty milligrams of each of the granules of the present compounds (5) and (11) obtained in Preparation example 6 was placed in a 100-ml beaker containing 100 ml of distilled water, and 30 full grown larvae of yellow fever mosquito (Aedes aegypti) were liberated therein. After 24 hours, 100% of the larvae could be killed.

Compound | LC50 [1] [ppm] | selectivity ratio [2] | LC50 at 48 h [2] [µg/mL] | mortality at 500 ppm [5] [%] | LD50 [6] [μg/adult] | also measured
CC1(C)[C@H](C(=O)OC(C#N)c2ccc(F)c(Oc3ccc(Br)cc3)c2)[C@@H]1C(Br)C(Cl)(Cl)Br (relative stereo) [compound (2), 3-(4-Bromophenoxy)-4-fluoro-α-cyanobenzyl dl-cis-2,2-dimethyl-3-(1,2-dibromo-2,2-dichloroethyl)cyclopropanecarboxylate] | 6.0 | > 167 | > 2 |  |  | 
CC1(C)[C@H](C(=O)OC(C#N)c2ccc(F)c(Oc3ccc(Cl)cc3)c2)[C@H]1C(Br)C(Cl)(Cl)Br (relative stereo) [compound (6), 3-(4-Chlorophenoxy)-4-fluoro-α-cyanobenzyl dl-trans-2,2-dimethyl-3-(1,2-dibromo-2,2-dichloroethyl)cyclopropanecarboxylate] | 2.7 | > 200 | > 1 | 100 | 0.031 | killifishes alive [3]: all of the killifishes were alive; green rice leafhoppers alive [4]: no alive green rice leafhoppers were found
CC1(C)[C@H](C(=O)OC(C#N)c2ccc(F)c(Oc3ccc(Cl)cc3)c2)[C@@H]1C(Br)C(Cl)(Cl)Br (relative stereo) [compound (7), 3-(4-Chlorophenoxy)-4-fluoro-α-cyanobenzyl dl-cis-2,2-dimethyl-3-(1,2-dibromo-2,2-dichloroethyl)cyclopropanecarboxylate] |  |  |  | 100 |  | 
CC1(C)C(C(=O)OC(C#N)c2ccc(F)c(Oc3ccc(Br)cc3)c2)C1C(Br)C(Cl)(Cl)Br (stereo not drawn) [(11), 3-(4-bromphenoxy)-4-fluoro-α-cyanobenzyl 2,2-dimethyl-3-(1,2-dibromo-2,2-dichloroethyl)cyclopropanecarboxylate] | 4.7 | > 200 | > 2 |  |  | mortality at 400 ppm ([7]; insects liberated 7 days after treatment, read-out: Mortality, effect 7 days after treatment): 100%; mortality at 400 ppm ([7]; read-out: Mortality, effect immediately after treatment): 100%; damage to rice plants by carmine mites [8]: the spreading of the damage could be prevented; killifishes alive [3]: all of the killifishes were alive; green rice leafhoppers alive [4]: no alive green rice leafhoppers were found; larvae killed [9]: 100%
CC1(C)C(C(=O)OC(C#N)c2cccc(Oc3ccccc3)c2)C1C(Br)C(Cl)(Cl)Br (stereo not drawn) [(A), reference compound] | 5.0 | 50 |  |  |  | 
CC1(C)C(C=C(Cl)Cl)C1C(=O)OC(C#N)c1ccc(F)c(Oc2ccccc2)c1 (stereo not drawn) [(B), reference compound] | 2.5 | < 2 | < 0.01 |  |  | 
CC1(C)C(C(=O)OC(C#N)c2cccc(Oc3ccc(Cl)cc3)c2)C1C(Br)C(Cl)(Cl)Br (stereo not drawn) [(C), reference compound] |  |  |  |  | 0.062 | 
CC1(C)C(C(=O)OC(C#N)c2cccc(Oc3ccc(Br)cc3)c2)C1C(Br)C(Cl)(Cl)Br (stereo not drawn) [(D), reference compound] |  |  |  |  | 0.063 | 
CC1(C)C(C(=O)OC(C#N)c2ccc(F)c(Oc3ccc(Br)cc3)c2)C1C(Br)C(Br)(Br)Br (stereo not drawn) [compound (3), 3-(4-Bromophenoxy)-4-fluoro-α-cyanobenzyl 2,2-dimethyl-3-(1,2,2,2-tetrabromoethyl)cyclopropanecarboxylate] |  |  |  |  |  | damage to rice plants by carmine mites [8]: the spreading of the damage could be prevented; killifishes alive [3]: all of the killifishes were alive; green rice leafhoppers alive [4]: no alive green rice leafhoppers were found
CC1(C)[C@H](C(=O)OC(C#N)c2ccc(F)c(Oc3ccc(Br)cc3)c2)[C@@H]1C(Br)C(Br)(Br)Br (stereo partly drawn) [compound (4), 3-(4-Bromophenoxy)-4-fluoro-α-cyanobenzyl d-cis-2,2-dimethyl-3-(1,2,2,2-tetrabromoethyl)cyclopropanecarboxylate] | 6.3 | > 154 | > 2 |  |  | 
CC1(C)C(C(=O)OC(C#N)c2ccc(F)c(Oc3ccc(Cl)cc3)c2)C1C(Br)C(Br)(Br)Br (stereo not drawn) [compound (8), 3-(4-Chlorophenoxy)-4-fluoro-α-cyanobenzyl 2,2-dimethyl-3-(1,2,2,2-tetrabromoethyl)cyclopropanecarboxylate] | 5.8 | > 83 | > 1 | 100 |  | 
CC1(C)[C@H](C(=O)OC(C#N)c2ccc(F)c(Oc3ccc(Cl)cc3)c2)[C@H]1C(Br)C(Cl)(Cl)Br (stereo partly drawn) [compound (9), 3-(4-Chlorophenoxy)-4-fluoro-α-cyanobenzyl d-trans-2,2-dimethyl-3-(1,2-dibromo-2,2-dichloroethyl)cyclopropanecarboxylate] | 1.5 | > 333 | > 1 | 100 | 0.018 | damage to rice plants by carmine mites [8]: the spreading of the damage could be prevented
CC1(C)[C@H](C(=O)OC(C#N)c2ccc(F)c(Oc3ccc(Cl)cc3)c2)[C@@H]1C(Br)C(Cl)(Cl)Br (stereo partly drawn) [compound (10), 3-(4-Chlorophenoxy)-4-fluoro-α-cyanobenzyl d-cis-2,2-dimethyl-3-(1,2-dibromo-2,2-dichloroethyl)cyclopropanecarboxylate] |  |  |  | 100 | 0.030 | 

— US4376785A, “Cyclopropanecarboxylates and a low fish toxic insecticide and/or acaricide containing them” (priority 1980, dated 1983)
